# Measured values reported in patent US6878751B1, “Administration of resveratrol to treat inflammatory respiratory disorders” (Imperial College of Science Technology and Medicine, priority 2000, dated 2005).
# Like-named read-outs stand apart in the source and are kept apart here.
# How the values were obtained:
# [1] = system: Smokers with no disease or mild COPD; assay: Oral resveratrol for chemoprevention of COPD in smokers (Example 10); format: in vivo, human; settings: 2 to 5 years
# Description: Resveratrol is evaluated clinically for efficacy in chemoprevention of COPD in smokers. The study is generally patterned after the asthma studies with modifications appropriate to the clinical and histopathologic evaluation of COPD disease, and the references listed in the preceding examples may be applied as appropriate. Smokers with no disease or mild COPD are treated once or more per day with gelatin capsules containing resveratrol. The population of smokers are subdivided into subpopulations: clinically and histopathologically disease free, clinically asymptomatic with histopathologic inflammation and mildly COPD symptomatic, meaning some chronic bronchitis but no pulmonary impairment causing hypoxemia or acidosis. Each subpopulation is divided randomly and blindly into four approximately equal groups that receive either 0 (placebo), 200, 2000, or 3000 mg/day resveratrol […] in oral doses of 0, 50, 500, or 750 mg administered 4 times daily for 2 to 5 years. […]
# Patients are medically monitored for clinical symptoms of COPD throughout the study, including onset of symptoms and frequency and severity thereof. […] Forced expiratory volume (FEV) and forced inspiratory volume (FIV) are also evaluated to measure airway patency as a direct measure of clinical morbidity and to determine correlation the histopathologic and other indicators of clinical disease. […]
# iNOS = iNOS activity by nitrite and nitrite/nitrate accumulation in cytomix-stimulated human primary epithelial cells; format: cell-based; settings: for EC50: Homo sapiens, Epithelial cell, 24 h
# Description: The inducible form of the enzyme NO synthase, iNOS(NOS2), which is known to be expressed during inflammation, is thought to be responsible for increased NO levels of asthmatic patients. Agents known to induce iNOS in human primary epithelial cells, such as interleukin-1β, tumor necrosis factor-α, and interferon-γ (cytomix) are useful in assaying resveratrol for inhibition of iNOS expression and activity, and comparing its effect to steroids.
# Human primary epithelial cells are cultured from normal donor tissue. Explant cultures of tissue obtained from normal human lung transplant donors provided human primary epithelial (HPE) cells. The HPE cells were cultured in Ham's F12 nutrient medium containing 5% (v/v) fetal calf serum (FCS), 1 μM hydrocortisone, 5 ng/ml EGF (epithelial growth factor), 10 μg/ml insulin, 10 nM retinoic acid, 0.5 μg/ml transferrin, 2 μg/ml triiodothyronine, 1.5 μg/ml NaHCO3, 100 μg/ml penicillin, 100 μg/ml streptomycin and 0.25 μg/m amphotericin B; the cells were incubated at 37° C. in a humidified atmosphere containing 95% (v/v) air, 5% (v/v) CO2. The HPE cells were cultured for the last 24 hours prior to the experimental treatments under the same conditions except that additive free Ham's F12 media was substituted for the supplemented Ham's F12 media described above.
# These cells were stimulated for 24 hours with 50 ng/ml cytomix (interferon-γ) in the absence or presence of resveratrol, or one of glucocorticoids, dexamethasone and budenoside. Activity of iNOS is measured by determination of […] and nitrite/nitrate accumulation. Nitrite was measured by a modification of the method of Misko, et al. (1993) Anal. Biochem. 214:11-16. […] The reaction was stopped by addition of 10 μl of 1.4M NaOH, and fluorescense was measured with a Biolite F1 fluorimeter (Labtech, Uckfield, U.K.) set at: 460 nm emission wavelength, 360 nm excitation wavelength, 40-50% sensitivity. Sample nitrite concentration was calculated by reference to a standard curve of known nitrite concentrations, permitting assay sensitivity to 0.1 μM.
# [2] = system: Steroid naive patients suffering from COPD; assay: Oral or inhaled resveratrol vs inhaled glucocorticoids in COPD, steroid naive patients (Example 5); format: in vivo, human; settings: 12 to 24 months
# Description: Steroid naive patients suffering from different COPDs patients are selected and divided into populations according to the COPD. Chronic bronchitis populations and emphysema populations are appropriately studied. The populations are divided in terms of progression of their COPD into subpopulations early or mild, mid-stage or moderate, and advanced impairment of lung function. The study is generally patterned after the asthma studies with modifications appropriate to the clinical and histopathologic evaluation of COPD disease, and the references listed in the preceding examples may be applied as appropriate. One major difference is that the COPD study should last for 1 to 2 years or longer, because of the chronic nature of COPD. Each subpopulation is divided equally and randomly into three groups. […]
# Patients are medically monitored for clinical symptoms of COPD throughout the study, including frequency and severity of hypoxemic and respiratiry acidotic exacerbations. […] In addition exhaled nitric oxide (NO) and carbon monoxide (CO) levels may be measured at more frequent intervals, such as every other week. Forced expiratory volume (FEV) and forced inspiratory volume (FIV) are also evaluated to measure airway patency as a direct measure of clinical morbidity and to determine correlation the histopathologic and other indicators of clinical disease. […]
compound,measurement,setting,value
"Oc1ccc(/C=C/c2cc(O)cc(O)c2)cc1 [Resveratrol, 3,5,4′-trihydroxystilbene]",side effects,"[1]; oral, relative to those expected from steroid administration",without significant side effects
same,efficacy in chemoprevention of COPD in smokers,"[1]; oral, 200, 2000 or 3000 mg/day",effective for chemoprevention of COPD in smokers
same,inhibition of nitrite formation / accumulation in the cell culture media,"iNOS; HPE cells, cytomix 24 hours, steroids at 10^−9 M to 10^−5 M",only agent able to inhibit nitrite formation
same,EC50,iNOS; read-out: EC50 for nitrite accumulation,3600 ± 2900 nM
same,EC50,iNOS; read-out: EC50 for nitrite/nitrate accumulation,880 ± 470 nM
same,efficacy in treating COPD compared with inhaled steroids,[2]; oral or pulmonary resveratrol vs pulmonary budenoside,more effective for treating COPD than inhaled steroids
same,systemic effects compared with inhaled glucocorticosteroids,[2]; oral or pulmonary resveratrol,fewer systemic effects
